From ChEMBL document CHEMBL3045872, “The Design and Synthesis of a Novel, Orally Active, Selective ETA Antagonist” (Med Chem Res, 2004)

Assays:
[1] = biological target: T1, Endothelin-1 receptor (Homo sapiens, UniProt P25101); experiment: Displacement of [I125]ET1 from Homo sapiens (human) ETA receptor expressed in CHO cells; assay type: cell-based
T1 sequence (P25101 whole entry): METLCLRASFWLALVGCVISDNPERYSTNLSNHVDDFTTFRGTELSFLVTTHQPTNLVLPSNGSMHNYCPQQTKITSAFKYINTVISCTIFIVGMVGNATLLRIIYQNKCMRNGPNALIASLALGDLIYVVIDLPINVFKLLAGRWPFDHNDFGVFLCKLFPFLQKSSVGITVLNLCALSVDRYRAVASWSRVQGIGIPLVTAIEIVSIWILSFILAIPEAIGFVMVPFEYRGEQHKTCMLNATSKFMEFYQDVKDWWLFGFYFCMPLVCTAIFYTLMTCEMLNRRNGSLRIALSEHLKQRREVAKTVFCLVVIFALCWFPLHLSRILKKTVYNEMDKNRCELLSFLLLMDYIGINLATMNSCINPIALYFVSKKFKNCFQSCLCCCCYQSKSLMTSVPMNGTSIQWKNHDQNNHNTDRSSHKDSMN

[2] = Inhibition of endothelin converting enzyme (unknown origin); design: species or system Homo sapiens
[3] = biological target: T2, Endothelin receptor type B (Homo sapiens, UniProt P24530); experiment: Displacement of [I125]ET1 from Homo sapiens (human) ETB receptor expressed in CHO cells; assay type: cell-based
T2 sequence (P24530 whole entry): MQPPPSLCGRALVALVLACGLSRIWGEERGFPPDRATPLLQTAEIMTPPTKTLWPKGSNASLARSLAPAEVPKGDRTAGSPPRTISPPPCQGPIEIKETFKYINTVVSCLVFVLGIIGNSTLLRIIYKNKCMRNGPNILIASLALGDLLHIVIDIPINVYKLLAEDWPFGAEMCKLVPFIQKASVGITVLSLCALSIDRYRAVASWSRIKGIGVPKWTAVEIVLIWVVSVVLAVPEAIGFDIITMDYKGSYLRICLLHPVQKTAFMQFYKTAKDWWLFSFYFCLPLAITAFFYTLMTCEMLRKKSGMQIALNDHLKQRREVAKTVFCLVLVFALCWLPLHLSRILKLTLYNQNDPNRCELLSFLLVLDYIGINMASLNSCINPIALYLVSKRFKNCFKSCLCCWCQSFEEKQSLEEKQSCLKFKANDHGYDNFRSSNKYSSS

[4] = tested on: Rattus norvegicus; experiment: Unbound clearance in Rattus norvegicus Sprague-Dawley (rat) at 2 mg/kg, iv; assay type: ADME, organism-based; design: dose 2 mg/kg, route intravenous; conditions: in vivo
[5] = Volume of distribution in Rattus norvegicus Sprague-Dawley (rat) at 2 mg/kg, iv; assay type: ADME, organism-based; design: dose 2 mg/kg, route intravenous; conditions: in vivo
[6] = Fraction unbound in Rattus norvegicus Sprague-Dawley (rat) at 2 mg/kg, iv; assay type: ADME, organism-based; design: dose 2 mg/kg, route intravenous; conditions: in vivo
[7] = Drug absorption in Rattus norvegicus Sprague-Dawley (rat) at 2 mg/kg, iv; assay type: ADME, organism-based; design: dose 2 mg/kg, route intravenous; conditions: in vivo, read-out: Drug absorption
[8] = Permeability of the compound across Homo sapiens (human) Caco2 cells; assay type: ADME, cell-based; conditions: Caco-2, read-out: permeability
[9] = Half life in Rattus norvegicus (rat) liver microsome at 1 uM; assay type: ADME; conditions: liver microsomes
[10] = Half life in Homo sapiens (human) liver microsome at 1 uM; assay type: ADME; conditions: liver microsomes
[11] = tested on: Rattus norvegicus; experiment: Prodrug conversion in Rattus norvegicus (rat) assessed as (S)-3-(1-(benzo[d][1,3]dioxol-5-yl)-2-(2-methoxy-4-methylphenylsulfonamido)-2-oxoethyl)-1-methyl-1H-indole-6-carboxylic acid level at 2 mg/kg, po; assay type: ADME, organism-based; design: dose 2 mg/kg, route oral; conditions: in vivo
[12] = tested on: Rattus norvegicus; experiment: Drug absorption in Rattus norvegicus (rat) assessed as (S)-3-(1-(benzo[d][1,3]dioxol-5-yl)-2-(2-methoxy-4-methylphenylsulfonamido)-2-oxoethyl)-1-methyl-1H-indole-6-carboxylic acid level at 2 mg/kg; assay type: ADME, organism-based; design: dose 2 mg/kg; conditions: in vivo
[13] = tested on: Rattus norvegicus; experiment: Tmax in Rattus norvegicus (rat) assessed as (S)-3-(1-(benzo[d][1,3]dioxol-5-yl)-2-(2-methoxy-4-methylphenylsulfonamido)-2-oxoethyl)-1-methyl-1H-indole-6-carboxylic acid level at 2 mg/kg, po; assay type: ADME, organism-based; design: dose 2 mg/kg, route oral; conditions: in vivo
[14] = tested on: Liver cytosol; experiment: Prodrug conversion in Sus scrofa (pig) liver cytosol assessed as (S)-3-(1-(benzo[d][1,3]dioxol-5-yl)-2-(2-methoxy-4-methylphenylsulfonamido)-2-oxoethyl)-1-methyl-1H-indole-6-carboxylic acid formation; assay type: ADME, tissue-based
[15] = Volume of distribution in Rattus norvegicus (rat) at 2 mg/kg, iv; assay type: ADME, organism-based; design: dose 2 mg/kg, route intravenous; conditions: in vivo
[16] = Elimination half life in Rattus norvegicus (rat) at 2 mg/kg, iv; assay type: ADME, organism-based; design: dose 2 mg/kg, route intravenous; conditions: in vivo, read-out: beta t1/2 (converted)
[17] = tested on: Rattus norvegicus; experiment: Apparent elimination half life in Rattus norvegicus (rat) assessed as (S)-3-(1-(benzo[d][1,3]dioxol-5-yl)-2-(2-methoxy-4-methylphenylsulfonamido)-2-oxoethyl)-1-methyl-1H-indole-6-carboxylic acid level at 2 mg/kg, po; assay type: ADME, organism-based; design: dose 2 mg/kg, route oral; conditions: in vivo
[18] = tested on: Rattus norvegicus; experiment: Cmax in Rattus norvegicus (rat) assessed as (S)-3-(1-(benzo[d][1,3]dioxol-5-yl)-2-(2-methoxy-4-methylphenylsulfonamido)-2-oxoethyl)-1-methyl-1H-indole-6-carboxylic acid level at 2 mg/kg, po; assay type: ADME, organism-based; design: dose 2 mg/kg, route oral; conditions: in vivo
[19] = Tmax in Rattus norvegicus (rat) at 2 mg/kg, po; assay type: ADME, organism-based; design: dose 2 mg/kg, route oral; conditions: in vivo
[20] = tested on: Liver cytosol; experiment: Prodrug conversion in male Rattus norvegicus (rat) liver cytosol assessed as (S)-3-(1-(benzo[d][1,3]dioxol-5-yl)-2-(2-methoxy-4-methylphenylsulfonamido)-2-oxoethyl)-1-methyl-1H-indole-6-carboxylic acid formation; assay type: ADME, tissue-based
[21] = tested on: Canis familiaris; experiment: Cardiotoxicity in Canis lupus familiaris (dog) assessed as change in left ventricular contractility at 1.5 to 15 mg/kg, po; assay type: toxicity, organism-based, Heart left ventricle; design: dose 1.5-15 mg/kg, route oral; conditions: in vivo
[22] = Cmax in Rattus norvegicus (rat) at 2 mg/kg, po; assay type: ADME, organism-based; design: dose 2 mg/kg, route oral; conditions: in vivo
[23] = tested on: Liver cytosol; experiment: Prodrug conversion in Homo sapiens (human) liver cytosol assessed as (S)-3-(1-(benzo[d][1,3]dioxol-5-yl)-2-(2-methoxy-4-methylphenylsulfonamido)-2-oxoethyl)-1-methyl-1H-indole-6-carboxylic acid formation; assay type: ADME, tissue-based
[24] = Half life in Canis lupus familiaris (dog) liver microsome at 1 uM; assay type: ADME; conditions: liver microsomes
[25] = tested on: Rattus norvegicus; experiment: Toxicity in Rattus norvegicus (rat) at 30 mg/kg, po QD for 5 days; assay type: organism-based; design: dose 30 mg/kg, route oral; conditions: in vivo, 120 h
[26] = tested on: Canis familiaris; experiment: Cardiotoxicity in Canis lupus familiaris (dog) assessed as change in heart rate at 1.5 to 15 mg/kg, po; assay type: toxicity, organism-based; design: dose 1.5-15 mg/kg, route oral; conditions: in vivo
[27] = tested on: Canis familiaris; experiment: Cardiotoxicity in Canis lupus familiaris (dog) assessed as change in ECG at 1.5 to 15 mg/kg, po; assay type: toxicity, organism-based; design: dose 1.5-15 mg/kg, route oral; conditions: in vivo
[28] = tested on: Rattus norvegicus; experiment: Prodrug conversion in Rattus norvegicus (rat) assessed as (S)-3-(1-(benzo[d][1,3]dioxol-5-yl)-2-(2-methoxy-4-methylphenylsulfonamido)-2-oxoethyl)-1-methyl-1H-indole-6-carboxylic acid level at 2 mg/kg, iv; assay type: ADME, organism-based; design: dose 2 mg/kg, route intravenous; conditions: in vivo
[29] = Plasma clearance in Rattus norvegicus (rat) at 2 mg/kg, iv; assay type: ADME, organism-based; design: dose 2 mg/kg, route intravenous

`COc1cc(C)ccc1S(=O)(=O)NC(=O)[C@@H](c1ccc2c(c1)OCO2)c1cn(C)c2cc(C(=O)O)ccc12` gave an IC50 [1] of 4.2 nM, an IC50 [2] of 325000 nM and an IC50 [3] of 347 nM. The Ki [3] was 1460 nM.

Compound `COc1cc(C)ccc1S(=O)(=O)NC(=O)C(c1ccc2c(c1)OCO2)c1cn(C)c2cc(CO)ccc12` (centres undefined) has a CL free [4] of 7200 mL/min/kg, a Vd [5] of 1.2 L/kg and a Fu [6] of 0.01%. The IC50 [1] was 8.7 nM, the Fa [7] was 55% and the Papp [8] was 1.2 ×10⁻⁶ cm/s. The IC50 [3] was 245 nM.

In the case of `COc1cc(C)ccc1S(=O)(=O)NC(=O)[C@@H](c1ccc2c(c1)OCO2)c1cn(C)c2cc(CO)ccc12`, the half-life at 1 µM [9] is reported as > 2 h, the half-life at 1 µM [10] is reported as > 2 h and the Drug metabolism [11] is reported as “Active”. For the same compound, the Drug absorption [12] was 36%, the Tmax [13] was 4 h and the Drug metabolism [14] was “Active”. For the same compound, the Vd [15] was 0.16 L/kg, the half-life [16] was 1.1 h and the “betat1/2(app)” value [17] was 9 h. For the same compound, the Cmax [18] was 83 ng/mL, the Tmax [19] was 0.25 h and the Drug metabolism [20] was “Active”. For the same compound, the Activity [21] was “Non-toxic”, the IC50 [1] was 2.2 nM and the Ki [1] was 2.2 nM. The IC50 [2] was 765000 nM, the Cmax [22] was 48 ng/mL and the Drug metabolism [23] was “Active”. The half-life at 1 µM [24] was > 2 h, the Activity [25] was “Non-toxic” and the IC50 [3] was 683 nM. The Ki [3] was 1500 nM, the Activity [26] was “Non-toxic” and the Activity [27] was “Non-toxic”. The Drug metabolism [28] was “Active” and the clearance [29] was 1.7 mL/min/kg.

`COc1cc(C)ccc1S(=O)(=O)NC(=O)C(c1ccc2c(c1)OCO2)c1cn(C)c2cc(C(N)=O)ccc12` (racemic) gave a CL free [4] of 1329 mL/min/kg, a Vd [5] of 0.6 L/kg and a Fu [6] of 0.007%. For the same compound, the Fa [7] was < 5%, the Papp [8] was 1.6 ×10⁻⁶ cm/s and the IC50 [3] was 275 nM.

With `CCn1cc(C(C(=O)NS(=O)(=O)c2ccc(C(C)C)cc2)c2ccc3c(c2)OCO3)c2ccccc21` (racemic) the IC50 [1] was 560 nM.

`Cn1cc(C(C(=O)NS(=O)(=O)c2ccc(CC(=O)O)cc2)c2ccc3c(c2)OCO3)c2ccc(C(N)=O)cc21` (racemic) showed a CL free [4] of 138 mL/min/kg, a Vd [5] of 0.3 L/kg and a Fu [6] of 0.048%. The IC50 [1] was 1.7 nM, the Fa [7] was < 5% and the Papp [8] was < 0.5 ×10⁻⁶ cm/s. The IC50 [3] was 574 nM.

`COc1cc(C)ccc1S(=O)(=O)NC(=O)C(c1ccc2c(c1)OCO2)c1cn(C)c2cc(C(=O)O)ccc12` (racemic) gave a CL free [4] of 609 mL/min/kg, a Vd [5] of 0.6 L/kg and a Fu [6] of 0.01%. The IC50 [1] was 5.3 nM, the Fa [7] was < 5% and the Papp [8] was < 0.5 ×10⁻⁶ cm/s. The IC50 [3] was 650 nM.

With `Cc1ccc(S(=O)(=O)NC(=O)C(c2ccc3c(c2)OCO3)c2cn(C)c3cc(CO)ccc23)cc1` (racemic) the IC50 [1] was 34 nM.
